{
  "source": "patent US11180504B2",
  "about": "(ORCHID PHARMA LTD., priority 2016, dated 2021)",
  "key": {"[1]": {"tested_on": "carbapenem sensitive Pseudomonas aeruginosa", "assay": "MIC by broth micro-dilution (CLSI), carbapenem sensitive P. aeruginosa", "format": "cell-based", "settings": "Pseudomonas aeruginosa, ATCC27853, Meropenem susceptible P. aeruginosa ATCC27853; read-out: MIC"}, "[2]": {"tested_on": "carbapenemase producing K. pneumoniae", "assay": "MIC by broth micro-dilution (CLSI), carbapenemase producing K. pneumoniae", "format": "cell-based, Klebsiella pneumoniae", "settings": "Klebsiella pneumoniae, ATCCBAA1705, KPC-2 K. pneumoniae ATCC BAA-1705; read-out: MIC"}, "[3]": {"tested_on": "methicillin-sensitive Staphylococcus aureus", "assay": "MIC by broth micro-dilution (CLSI), methicillin-sensitive S. aureus", "format": "cell-based", "settings": "Staphylococcus aureus, ATCC 29213 / MSSA, MSSA S. aureus ATCC29213; read-out: MIC"}, "[4]": {"tested_on": "carbapenem sensitive Escherichia coli", "assay": "MIC by broth micro-dilution (CLSI), carbapenem sensitive E. coli", "format": "cell-based", "settings": "Escherichia coli, ATCC25922, ESBL −ve E. coli ATCC25922; read-out: MIC"}},
  "data": [
    {"molecule": "C[C@H]([C@H]1C(=O)N2C(C(=O)O)=C(S[C@@H]3CN[C@H](C(=O)N4CC[C@@H](N)C4)C3)[C@H](C)[C@H]12)n1cnnn1", "note": "[Example 328, (4R,5S,6S)-6-((R) - 1-(1H-tetrazol-1-yl)ethyl)-3-((3S,5S)-5-((R)-3-aminopyrrolidine-1-carbonyl)pyrrolidin-3-ylthio)-4-methyl-7-oxo-1-azabicyclo[3.2.0]hept-2-ene-2-carboxylic acid]", "values": [
      {"measurement": "MIC", "setting": "[1]", "result": 32, "unit": "µg/mL"},
      {"measurement": "MIC", "setting": "[2]", "result": 4, "unit": "µg/mL"},
      {"measurement": "MIC", "setting": "[3]", "result": 4, "unit": "µg/mL"},
      {"measurement": "MIC", "setting": "[4]", "result": 2, "unit": "µg/mL"}
    ]},
    {"molecule": "C[C@@H](NC(=O)Cn1cnnn1)[C@H]1C(=O)N2C(C(=O)O)=C(S[C@@H]3CN[C@H](C(=O)N4C[C@@H](N)[C@H](O)C4)C3)[C@H](C)[C@H]12", "note": "[Example 329, (4R,5S,6R)-6-((R) - 1-(2-(1H-tetrazol-1-yl)acetamido)ethyl)-3-((3S,5S)-5-((3R,4R)-3-amino-4-hydroxypyrrolidine-1-carbonyl)pyrrolidin-3-ylthio)-4-methyl-7-oxo-1-azabicyclo[3.2.0]hept-2-ene-2-carboxylic acid]", "values": [
      {"measurement": "MIC", "setting": "[1]", "result": 8, "unit": "µg/mL"},
      {"measurement": "MIC", "setting": "[2]", "result": 2, "unit": "µg/mL"},
      {"measurement": "MIC", "setting": "[3]", "result": 8, "unit": "µg/mL"},
      {"measurement": "MIC", "setting": "[4]", "result": 0.25, "unit": "µg/mL"}
    ]},
    {"molecule": "Cc1nnnn1CC(=O)N[C@H](C)[C@H]1C(=O)N2C(C(=O)O)=C(S[C@@H]3CN[C@H](C(=O)N(C)C)C3)[C@H](C)[C@H]12", "note": "[Example 330, (4R,5S,6R)-3-((3S,5S)-5-(dimethylcarbamoyl)pyrrolidin-3-ylthio)-4-methyl-6-((R) - 1-(2-(5-methyl-1H-tetrazol-1-yl)acetamido)ethyl)-7-oxo-1-azabicyclo[3.2.0]hept-2-ene-2-carboxylic acid]", "values": [
      {"measurement": "MIC", "setting": "[1]", "result": 64, "unit": "µg/mL"},
      {"measurement": "MIC", "setting": "[2]", "result": 2, "unit": "µg/mL"},
      {"measurement": "MIC", "setting": "[3]", "result": 8, "unit": "µg/mL"},
      {"measurement": "MIC", "setting": "[4]", "result": 0.25, "unit": "µg/mL"}
    ]},
    {"molecule": "Cc1nnnn1CC(=O)N[C@H](C)[C@H]1C(=O)N2C(C(=O)O)=C(S[C@@H]3CN[C@H](C(=O)N4CC[C@@H](N)C4)C3)[C@H](C)[C@H]12", "note": "[Example 331, (4R,5S,6R)-3-((3S,5S)-5-((R)-3-aminopyrrolidine-1-carbonyl)pyrrolidin-3-ylthio)-4-methyl-6-((R) - 1-(2-(5-methyl-1H-tetrazal-1-yl)acetamido)ethyl)-7-oxo-1-azabicyclo[3.2.0]hept-2-ene-2-carboxylic acid]", "values": [
      {"measurement": "MIC", "setting": "[1]", "result": 8, "unit": "µg/mL"},
      {"measurement": "MIC", "setting": "[2]", "result": 4, "unit": "µg/mL"},
      {"measurement": "MIC", "setting": "[3]", "result": 4, "unit": "µg/mL"},
      {"measurement": "MIC", "setting": "[4]", "result": 0.25, "unit": "µg/mL"}
    ]},
    {"molecule": "C[C@@H](NC(=O)Cn1cnnn1)[C@H]1C(=O)N2C(C(=O)O)=C(S[C@@H]3CN[C@H](C(=O)N4CCC(C)(N)CC4)C3)[C@H](C)[C@H]12", "note": "[Example 332, (4R,5S,6R)-6-((R) - 1-(2-(1H-tetrazol-1-yl)acetamido)ethyl)-3-((3S,5S)-5-(4-amino-4-methylpiperidine-1-carbonyl)pyrrolidin-3-ylthio)-4-methyl-7-oxo-1-azabicyclo[3.2.0]hept-2-ene-2-carboxylic acid]", "values": [
      {"measurement": "MIC", "setting": "[1]", "result": 8, "unit": "µg/mL"},
      {"measurement": "MIC", "setting": "[2]", "result": 4, "unit": "µg/mL"},
      {"measurement": "MIC", "setting": "[3]", "result": 8, "unit": "µg/mL"},
      {"measurement": "MIC", "setting": "[4]", "result": 1, "unit": "µg/mL"}
    ]},
    {"molecule": "C[C@@H](NC(=O)Cn1cnnn1)[C@H]1C(=O)N2C(C(=O)O)=C(S[C@@H]3CN[C@H](C(=O)N4CC5C(N)C5C4)C3)[C@H](C)[C@H]12", "note": "(stereo partly drawn) [Example 333, (4R,5S,6R)-6-((R) - 1-(2-(1H-tetrazol-1-yl)acetamido)ethyl)-3-((3S,5S)-5-(6-amino-3-azabicyclo[3.1.0]hexane-3-carbonyl)pyrrolidin-3-ylthin)-4-methyl-7-oxo-1-azabicyclo[3.2.0]hept-2-ene-2-carboxylic acid]", "values": [
      {"measurement": "MIC", "setting": "[1]", "result": 4, "unit": "µg/mL"},
      {"measurement": "MIC", "setting": "[2]", "result": 4, "unit": "µg/mL"},
      {"measurement": "MIC", "setting": "[3]", "result": 8, "unit": "µg/mL"},
      {"measurement": "MIC", "setting": "[4]", "result": 0.5, "unit": "µg/mL"}
    ]},
    {"molecule": "C[C@@H](NC(=O)Cn1nnc(C(F)(F)F)n1)[C@H]1C(=O)N2C(C(=O)O)=C(S[C@@H]3CN[C@H](C(=O)N4CC[C@@H](N)C4)C3)[C@H](C)[C@H]12", "note": "[Example 334, (4R,5S,6R)-3-((3S,5S)-5-((R)-3-aminopyrrolidine-1-carbonyl)pyrrolidin-3-ylthio)-4-methyl-7-oxo-6-((R) - 1-(2-(5-(trifluoromethyl)-2H-tetrazol-2-yl)acetamido)ethyl) - 1-azabicyclo[3.2.0]hept-2-ene-2-carboxylic acid]", "values": [
      {"measurement": "MIC", "setting": "[1]", "result": 128, "unit": "µg/mL"},
      {"measurement": "MIC", "setting": "[2]", "result": 32, "unit": "µg/mL"},
      {"measurement": "MIC", "setting": "[3]", "result": 4, "unit": "µg/mL"},
      {"measurement": "MIC", "setting": "[4]", "result": 0.5, "unit": "µg/mL"}
    ]},
    {"molecule": "C[C@@H](NC(=O)Cn1nnc(C(F)(F)F)n1)[C@H]1C(=O)N2C(C(=O)O)=C(S[C@@H]3CN[C@H](C(=O)N(C)C)C3)[C@H](C)[C@H]12", "note": "[Example 335, (4R,5S,4R)-3-((3S,5S)-5-(dimethylcarbamoyl)pyrrolidin-3-ylthio)-4-methyl-7-oxo-6-((R) - 1-(2-(5-(trifluoromethyl)-2H-tetrazol-2-yl)acetamido)ethyl) - 1-azabicyclo[3.2.0]hept-2-ene-2-carboxylic acid]", "values": [
      {"measurement": "MIC", "setting": "[1]", "result": "> 128", "unit": "µg/mL"},
      {"measurement": "MIC", "setting": "[2]", "result": 64, "unit": "µg/mL"},
      {"measurement": "MIC", "setting": "[3]", "result": 4, "unit": "µg/mL"},
      {"measurement": "MIC", "setting": "[4]", "result": 1, "unit": "µg/mL"}
    ]},
    {"molecule": "C[C@@H](NC(=O)Cn1cnnn1)[C@H]1C(=O)N2C(C(=O)O)=C(S[C@@H]3CN[C@H](C(=O)N4CCC[C@@H](N)C4)C3)[C@H](C)[C@H]12", "note": "[Example 336, (4R,5S,6R)-6-((R) - 1-(2-(1H-tetrazol-1-yl)acetamido)ethyl)-3-((3S,5S)-5-((R)-3-aminopiperidine-1-carbonyl)pyrrolidin-3-ylthio)-4-methyl-7-oxo-1-azabicyclo[3.2.0]hept-2-ene-2-carboxylic acid]", "values": [
      {"measurement": "MIC", "setting": "[1]", "result": 8, "unit": "µg/mL"},
      {"measurement": "MIC", "setting": "[2]", "result": 4, "unit": "µg/mL"},
      {"measurement": "MIC", "setting": "[3]", "result": 4, "unit": "µg/mL"},
      {"measurement": "MIC", "setting": "[4]", "result": 1, "unit": "µg/mL"}
    ]},
    {"molecule": "C[C@@H]1C(S[C@@H]2CN[C@H](C(=O)N(C)C)C2)=C(C(=O)O)N2C(=O)[C@H]([C@@H](C)NC(=O)C(F)F)[C@@H]12", "note": "[Example 337, (4S,5S,6R)-6-((R) - 1-(2,2-difluoroacetamido)ethyl)-3-((3S,5S)-5-(dimethylcarbamoyl)pyrrolidin-3-ylthio)-4-methyl-7-oxo-1-azabicyclo[3.2.0]hept-2-ene-2-carboxylic acid]", "values": [
      {"measurement": "MIC", "setting": "[1]", "result": 32, "unit": "µg/mL"},
      {"measurement": "MIC", "setting": "[2]", "result": 1, "unit": "µg/mL"},
      {"measurement": "MIC", "setting": "[3]", "result": 2, "unit": "µg/mL"},
      {"measurement": "MIC", "setting": "[4]", "result": 0.5, "unit": "µg/mL"}
    ]},
    {"molecule": "CCOC(=O)c1nnnn1CC(=O)N[C@H](C)[C@H]1C(=O)N2C(C(=O)O)=C(S[C@@H]3CN[C@H](C(=O)N(C)C)C3)[C@H](C)[C@H]12", "note": "[Example 338, (4R,5S,6R)-3-((3S,5S)-5-(dimethylcarbamoyl)pyrrolidin-3-ylthio)-6-((R) - 1-(2-(5-(ethoxycarbonyl) - 1H-tetrazol-1-yl)acetamido)ethyl)-4-methyl-7-oxo-1-azabicyclo[3.2.0]hept-2-ene-2-carboxylic acid]", "values": [
      {"measurement": "MIC", "setting": "[1]", "result": 128, "unit": "µg/mL"},
      {"measurement": "MIC", "setting": "[2]", "result": 32, "unit": "µg/mL"},
      {"measurement": "MIC", "setting": "[3]", "result": 8, "unit": "µg/mL"},
      {"measurement": "MIC", "setting": "[4]", "result": 2, "unit": "µg/mL"}
    ]},
    {"molecule": "CCOC(=O)c1nnnn1CC(=O)N[C@H](C)[C@H]1C(=O)N2C(C(=O)O)=C(S[C@@H]3CN[C@H](C(=O)N4CC[C@@H](N)C4)C3)[C@H](C)[C@H]12", "note": "[Example 339, (4R,5S,6R)-3-((3S,5S)-5-((R)-3-aminopyrrolidine-1-carbonyl)pyrrolidin-3-ylthio)-6-((R) - 1-(2-(5-(ethoxycarbonyl) - 1H-tetrazol-1-yl)acetamido)ethyl)-4-methyl-7-oxo-1-azabicyclo[3.2.0]bept-2-ene-2-carboxylic acid]", "values": [
      {"measurement": "MIC", "setting": "[1]", "result": 32, "unit": "µg/mL"},
      {"measurement": "MIC", "setting": "[2]", "result": 32, "unit": "µg/mL"},
      {"measurement": "MIC", "setting": "[3]", "result": 8, "unit": "µg/mL"},
      {"measurement": "MIC", "setting": "[4]", "result": 1, "unit": "µg/mL"}
    ]}
  ]
}
